Holding throughout (type): cell-based
Holding throughout (settings): Fibroblast

The subject of experiment [1] is IL-8 secretion. Put plainly: Inhibition of IL-8 secretion in human dermal fibroblasts stimulated with LPS or UVB (Example 7.2). Here is the method: (§1) Dermis-derived human fibroblasts were incubated with lipopolysaccharide (LPS) or UV to induce the secretion of pro-inflammatory markers IL-6 and IL-8. The anti-inflammatory potential of the sample was identified by the reduction in the secretion of the pro-inflammatory markers. Material used: Dermis-derived human fibroblasts, kept in culture until the tenth passage at most. Sterile-culture plates with 96 wells, non-sterile plates with 96 wells, conical tubes of 15 ml and 50 ml, radiation chamber with UVB lamp. 96-well plates were prepared with 2×10^4 cells/well in 100 μl μl of DMEM containing 10% SFB. The cells were incubated overnight in a CO2 oven. The culture medium was discarded and the wells were washed with 200 μl PBS. 100 μl of DMEM containing 1% SFB and the suitable stimuli were added. Incubation was carried out in a CO2 oven overnight. […] 100 μl of PBS and the suitable stimuli were added. […] After stimulation, supernatants were collected, stored at −20° C. and assessed by ELISA (described below). In order to keep cell viability after stimulation, the cells were incubated with a Neutral Red solution for 3 hours and, after washing with 200 μl of PBS, 200 μl of development solution were added, and the reading was performed at 540 nm. […] The quantification of pro-inflammatory markers was determined from the comparisons with the standard curves specifically constructed for IL-6 or IL-8. […]

The subject of experiment [2] is IL-6 secretion. Put plainly: Inhibition of IL-6 secretion in human dermal fibroblasts (Example 7.1). On the procedure: (§2) The objective of this test was to assess the anti-inflammatory potential of in vitro extracts, using human dermal fibroblast cultures. The statistical significance (p<0.05) of the data was verified by the analysis of variance (One-Way ANOVA) followed by a Tukey multiple comparison using the SYSTAT 10 software.
(§3) Human fibroblasts derived from the dermis were incubated with lipopolysaccharide (LPS) of Escherichia coli to induce the secretion of pro-inflammatory citokines IL-6 and IL-8 (Interleukin 6 and 8). The anti-inflammatory potential of the sample was identified by the reduction in the secretion of the pro-inflammatory markers. • Material used: Dermis-derived human fibroblasts, kept in culture until the tenth passage at most. […]
(§4) After stimulation, supernatants were collected, stored at −20° C. and analysed by ELISA (described below). In order to keep cell viability after stimulation, the cells were incubated with a Neutral Red solution for 3 hours and after washing with 200 μl of PBS, 200 μl of development solution were added, and the reading was performed at 540 nm. […]
(§5) For the ELISA test, 96-well plates were used. The quantification of pro-inflammatory markers was determined from the comparisons with the standard curves specifically constructed for IL-6 or IL-8. […]

Experiment [3] deals with IL-8 secretion. Put plainly: Inhibition of IL-8 secretion in human dermal fibroblasts (Example 7.1). On the procedure:
as §2, §3, §4, §5

The test system of experiment [4] is IL-6 secretion. The experiment in a line: Inhibition of IL-6 secretion in human dermal fibroblasts stimulated with LPS or UVB (Example 7.2). Here is the method:
as §1

The mark [5] stands for this setting: LPS 10 ng/ml + 5 uM, reference LPS.
The mark [6] stands for this setting: 5 uM + LPS 10 ng/ml, reference LPS.
Where [7] appears, read: 5 uM, no LPS, reference Control.
The mark [8] stands for this setting: light or radiation study, UVB 0.23 J/cm2 + 5 uM, reference UVB.

As for `C[C@@H]1C[C@H]2[C@@H]3CCC4=CC(=O)C=C[C@]4(C)[C@@]3(F)[C@@H](O)C[C@]2(C)[C@@]1(O)C(=O)CO` [Dexamethasone], the inhibition at 5 µM in experiment [1] (setting [5]) came out at 82%; in experiment [2] (setting [6]), 96%; in experiment [2] (setting [7]), 71%; in experiment [3] (setting [6]) it was 53%; in experiment [3] (setting [7]) it was 68%; in experiment [4] (setting [5]), 94%.

Regarding `C[C@]12CCC(=O)C=C1CC[C@@H]1[C@@H]2[C@@H](O)C[C@@]2(C)[C@H]1CC[C@]2(O)C(=O)CO` [Hydrocortisone], the values for the inhibition at 5 µM in experiment [1] (setting [8]) and in experiment [4] (setting [8]) were 79% and 71%, respectively.

Usually inhibition stands for the drop in the measured response relative to a control, in per cent.

The values above are taken from patent US20110135774A1, “Process for Preparing a Plant Extract of Passiflora Alata and Use of Said Extract in Cosmetic and Pharmaceutical Compositions” (priority 2007, published 2011).
